Measured values taken from patent US6599743B2, “Method for microproduction of tea plants from leaf explants” (Council of Scientific & Industrial Research, priority 2001, dated 2003).

Tested on: rhizogenic calli derived from leaf explants
Test: adventitious shoot bud formation on rhizogenic calli derived from tea leaf explants
Assay type: cell-based, Camellia sinensis
Conditions: rhizogenic calli transferred to auxin free MS medium with 0.5 to 8 mg/l 6 Benzyl amino purine
Procedure: iv) For adventitious shoot bud formation, the rhizogenic callus cultures obtained from step (iii) were transferred to (0.8%) agar solidified basal MS medium supplemented with 6 Benzyl amino purine (0.5 to 8.0 mg/l) and 3% sucrose.
After 4-10 weeks, the rhizogenic callus was transferred to (0.8%) agar solidified basal MS medium supplemented with 3% sucrose and 0.5 to 8.0 mg/l 6 Benzyl amino purine for adventitious shoot bud formation.

## c1ccc(CNc2ncnc3nc[nH]c23)cc1 [6 Benzyl amino purine]
  adventitious shoot bud development: more than 30%
  explants responding (leaf explant response): ~100%
